Reference: paper PMC9827630, “Intra-colony venom diversity contributes to maintaining eusociality in a cooperatively breeding ant” (BMC Biology, 2023)
“And” between values parts separate entries of the source, which are not always exact repeats. Equal values may be shown once. Read-outs that look alike come from different tables or passages of the source. Where no end group is shown, it is not given here.

Columns and labels:
[1] = test system: Acinetobacter baumannii ATCC 19606; assay: Antimicrobial growth inhibition (CO-ADD); format: cell-based; settings: for Max response ± SEM: percentage growth inhibition, mean ± SEM; for Max response ± SEM / MIC: absorbance at 600 nm; for MIC: sigmoidal dose-response fit of growth inhibition; for EC50: summary of Table S2
Protocol: (§1) Antimicrobial and cytotoxicity assays were performed by CO-ADD (The Community for Antimicrobial Drug Discovery, Institute for Molecular Bioscience, The University of Queensland). […] Percentage growth inhibition was calculated using negative controls (media only) and positive controls (no peptide). For the hemolysis assays, human whole blood was washed three times with 3 volumes of 0.9% NaCl and then resuspended in 0.9% NaCl to a concentration of 0.5 × 10^8 cells/mL. Cells were incubated for 1 h at 37°C with or without the peptide. After incubation, plates were centrifuged at 1000 g for 10 min to pellet cells and debris and hemolysis determined by measuring the supernatant absorbance at 405 nm.

[2] = test system: Escherichia coli ATCC 25922; assay: Antimicrobial growth inhibition (CO-ADD); format: cell-based; settings: absorbance at 600 nm; for Max response ± SEM: percentage growth inhibition, mean ± SEM; for MIC: sigmoidal dose-response fit of growth inhibition
Protocol: as §1

[3] = test system: Klebsiella pneumoniae ATCC 700603; assay: Antimicrobial growth inhibition (CO-ADD); format: cell-based; settings: absorbance at 600 nm; for Max response ± SEM: percentage growth inhibition, mean ± SEM; for MIC: sigmoidal dose-response fit of growth inhibition
Protocol: as §1

[4] = test system: Pseudomonas aeruginosa ATCC 27853; assay: Antimicrobial growth inhibition (CO-ADD); format: cell-based; settings: absorbance at 600 nm; for Max response ± SEM: percentage growth inhibition, mean ± SEM; for MIC: sigmoidal dose-response fit of growth inhibition
Protocol: as §1

[5] = test system: Staphylococcus aureus ATCC 43300; assay: Antimicrobial growth inhibition (CO-ADD); format: cell-based; settings: for Max response ± SEM: percentage growth inhibition, mean ± SEM; for Max response ± SEM / MIC: absorbance at 600 nm; for MIC: sigmoidal dose-response fit of growth inhibition; for EC50: summary of Table S2
Protocol: as §1

[6] = test system: Candida albicans ATCC 90028; assay: Antifungal growth inhibition (CO-ADD); format: cell-based; settings: absorbance at 530 nm; for Max response ± SEM: percentage growth inhibition, mean ± SEM; for MIC: sigmoidal dose-response fit of growth inhibition
Protocol: as §1

[7] = test system: Cryptococcus neoformans var. grubii H99; ATCC 208821; assay: Antifungal growth inhibition (CO-ADD); format: cell-based; settings: for Max response ± SEM: percentage growth inhibition, difference in absorbance 600 and 570 nm after resazurin, 35°C 2 h, mean ± SEM; for MIC: sigmoidal dose-response fit of growth inhibition, resazurin read-out
Protocol: as §1

[8] = test system: Human embryonic kidney cells ATCC CRL-1573; assay: Cytotoxicity assay (CO-ADD), resazurin; format: cell-based; settings: resazurin fluorescence; for Max response ± SEM: percentage growth inhibition, 37°C 5% CO2, mean ± SEM; for CC50 (concentration at 50% cytotoxicity): sigmoidal dose-response fit
Protocol: as §1

Human red blood cells = assay: Hemolysis assay (CO-ADD); format: cell-based; settings: 1 h at 37°C; for HC50 (concentration at 50% hemolytic activity): absorbance at 405 nm, sigmoidal dose-response fit; for Max response ± SEM: hemolysis, washed human blood 0.5 × 10^8 cells/mL in 0.9% NaCl, supernatant absorbance at 405 nm, mean ± SEM
Protocol: as §1

[9] = test system: F11 (mouse neuroblastoma × rat dorsal root ganglion (DRG) neuron hybrid) cells; assay: Calcium imaging of F11 cells (FLIPR); format: cell-based; settings: increase in [Ca2+]i
Protocol: F11 (mouse neuroblastoma × rat dorsal root ganglion (DRG) neuron hybrid) cells were cultured as previously described. Cells were maintained on Ham’s F12 media supplemented with 10 % fetal bovine serum, 100 μM hypoxanthine, 0.4 μM aminopterin, and 16 μM thymidine (Hybri-MaxTM, Sigma Aldrich). 384-well imaging plates (Corning, Lowell, MA, USA) were seeded 48 h prior to imaging resulting in 90 – 95% confluence at imaging. Cells were incubated for 30 min with Calcium 4 assay component A, as per the manufacturer’s instructions (Molecular Devices, Sunnyvale, CA) in physiological salt solution (PSS; composition in mM: 140 NaCl, 11.5 D-glucose, 5.9 KCl, 1.4 MgCl2, 1.2 NaH2PO4, 5 NaHCO3, 1.8 CaCl2, 10 HEPES) at 37°C. […] Signals were read every second for 10 s before, and 300 s after, the addition of peptides in PSS supplemented with 0.1% bovine serum albumin. All data represent mean ± SEM of a representative assay in triplicate. Fluorescence changes on peptide addition were compared to addition of negative control solution (0.1% BSA in PSS). The resulting maximum-minimum fluorescence in the 300 s period after peptide addition was recorded as the response.

HEK = assay: Ion permeability HEK; format: cell-based, Human; settings: ions listed as permeant; - = none
F11 = assay: Ion permeability F11; format: cell-based, mouse; settings: ions listed as permeant; - = none
HAP1 cells = assay: Cell viability assay, resazurin; format: cell-based
Protocol: In addition to the cytotoxicity assays performed by CO-ADD, we screened the synthetic peptides for toxicity in cell viability assays using HAP1, MM96L, and HEK293T cells. peptides were reconstituted in 100% DMSO then diluted in cell media (HAP1: IMDM (Sigma Aldrich) with 10% FBS and 1% Penicillin/Streptomycin (P/S); MM96L: RPMI (Gibco) with 10% FBS, 1% P/S and 1% GlutaMAX (Gibco); HEK293T: DMEM high glucose (Gibco), with 10% FBS and 1% P/S. Trypsinized cells ([…]) were seeded in each well of a 96-well plate. 0.01 to 1000 μM peptide was added to each well after 24 h, and the cells incubated for an additional 74 h. After incubation, the medium was aspirated from each well and 150 μL of fresh medium containing a 0.002% solution of resazurin (Sigma-Aldrich) was added to the wells and incubated for 4 h at 37 °C. The absorbance was measured at 570 nm using a microplate spectrophotometer (FLUOstar Omega, BMG Labtech, Germany). Percentage cell viability at concentrations of 10 and 100 μM peptide were compared with negative control by one-way ANOVA Dunnett’s multiple comparisons test (GraphPad Prism8).

panel of microbes = assay: Antimicrobial screening, summary over the panel of microbes; format: cell-based
Protocol: as §1

[10] = test system: Female fruit flies (D. melanogaster strain Canton-S); assay: Fruit fly injection assay (lethality, paralysis, climbing); format: in vivo, Drosophila melanogaster; settings: 5 nmol/g injected, climbing assay 5 min after injection; significant versus control
Protocol: Female fruit flies (D. melanogaster strain Canton-S) were injected four to six days post-emergence. Female flies were used because their larger size makes injection easier. Groups of eight female flies were assayed in triplicate for each dose tested. Injection needles were formed from glass capillary tubes (#3-000-203-G/X, Drummond, Birmingham, AL, USA) using a micropipette puller (Sutter Instrument Co. Model P-97), with the fine tip manually trimmed afterwards using scissors. Needles then were filled with mineral oil, connected to a Nanoliter 2000 microinjector ([…], Bensenville, IL USA) equipped with a foot pedal, and ~1 μL of peptide solution or water aspirated. Each group of flies were immobilized by cooling for approximately 2 min on ice, and then decanted on the top of the ‘injection stage’, a petri dish filled with ice. Under a dissecting microscope, each fly was carefully impaled on the lateral thorax behind the wing, and 50.6 nL of venom peptide or water was injected. After injection, each group of flies were returned to their 5 mL plastic tube at room temperature and their behavior observed.

[11] = max-min fluorescence over 300 s, read-out: EC50 (F11 cells, Table S2)
[12] = all strains of the panel (for Rm54a and Rm55a: strains other than S. aureus)

Substance	Max response ± SEM [1]	MIC [1] [µM]	Max response ± SEM [2]	MIC [2] [µM]	Max response ± SEM [3]	MIC [3] [µM]	Max response ± SEM [4]	MIC [4] [µM]	Max response ± SEM [5]	MIC [5] [µM]	Max response ± SEM [6]	MIC [6] [µM]	Max response ± SEM [7]	MIC [7] [µM]	Max response ± SEM [8]	CC50 (concentration at 50% cytotoxicity) [8]	HC50 (concentration at 50% hemolytic activity) (Human red blood cells)	ion permeability HEK (HEK)	ion permeability F11 (F11)	Cytotoxicity to HAP cells (HAP1 cells)	also measured
ALWDTIKKWVAKVLPLVKNALK-NH2 [Rm20a]	100 ± 1	≤0.10	100 ± 0	13	71 ± 29	>13	14 ± 2	>13	102 ± 2	1.6	8 ± 7	>13	88 ± 1	0.79	57 ± 5	11 µM	>13 (HC50) uM	Ca2+,Na+,Th+	Ca2+,Na+,Th+	cytotoxic to HAP cells	EC50 [1]: ≤ 0.1 µM; EC50 [9, 11]: 8.1 µM; HAP cell viability (HAP1 cells; 10 μM peptide, n = 3 per group): significantly reduced HAP cell viability; Growth inhibition over the microbial strains examined (panel of microbes; all microbial strains except Pseudomonas aeruginosa and Candida albicans): complete or near-complete growth inhibition of all microbial strains
FIGGLIKFIAKFVPKILPFFQKKN-OH [Rm34a]	100 ± 0	≤0.09	98 ± 0	8.6	70 ± 28	11	85 ± 6	11	102 ± 2	≤0.09	100 ± 2	0.72	101 ± 0	6.1	57 ± 5	1.7 µM	3.3 µM	Ca2+,Na+,Th+	Ca2+,Na+,Th+	cytotoxic to HAP cells	EC50 [1]: ≤ 0.09 µM; EC50 [5]: ≤ 0.09 µM; EC50 [9, 11]: 4.8 µM; Motor behavior (climbing assay) [10]: disrupted motor behavior; HAP cell viability (HAP1 cells; 10 μM peptide, n = 3 per group): significantly reduced HAP cell viability; Growth inhibition over the microbial strains examined (panel of microbes; [12]): complete or near-complete growth inhibition of all microbial strains
FLPFLIPVIASLVSSLK-NH2 [Rm55a]	24 ± 1	>17	4 ± 1	>17	8 ± 1	>17	10 ± 1	>17	103 ± 2	≤0.14	3 ± 0	>17	-10 ± 0	>17	51 ± 0	>17 (CC50) uM	>17 (HC50) uM	Ca2+,Na+	Ca2+,Na+,Th+	cytotoxic to HAP cells	Inhibition of S. aureus (in words) [5]: complete inhibition; EC50 [5]: ≤ 0.14 µM; Max response ± SEM (Human red blood cells): 15 ± 6; EC50 ([9]; max – min fluorescence, n = 3, four-parameter Hill equation, read-out: EC50 (effect on F11 cells, Fig. 5)): 9.2 µM; HAP cell viability (HAP1 cells; 100 μM peptide, n = 3, mean ± SEM): 24.6 ± 8.1%; Growth inhibition over the microbial strains examined (panel of microbes; [12]): not affecting any of the other strains examined
FWLKGGRGDG-NH2 [Rm53a/b]	5 ± 1 and 4 ± 2	>29	4 ± 1 and 3 ± 1	>29	5 ± 0	>29	12 ± 4 and 11 ± 5	>29	5 ± 1 and 7 ± 2	>29		>29		>29							Growth inhibition over the microbial strains examined (panel of microbes; [12]): no inhibitory activity
ILPALIPVFASLLPWAIKKF-NH2 [Rm55b]	98 ± 0	14	11 ± 1	>14	12 ± 1	>14	3 ± 1	>14	103 ± 1	≤0.11	3 ± 0	>14	86 ± 4	11	98 ± 1	2.6 µM	7.4 µM	Ca2+,Na+,Th+	Ca2+,Na+,Th+	cytotoxic to HAP cells	Max response ± SEM (Human red blood cells): 40 ± 3; EC50 [9, 11]: 4 µM; Motor behavior (climbing assay) [10]: disrupted motor behavior; HAP cell viability (HAP1 cells; 10 μM peptide, n = 3 per group): significantly reduced HAP cell viability
RNVPRWFTPRL-NH2 [Rm52d]	5 ± 2	>22	1 ± 2	>22	5 ± 0	>22	7 ± 0	>22	12 ± 6	>22	2 ± 1	>22	-13 ± 5	>22							Growth inhibition over the microbial strains examined (panel of microbes; [12]): no inhibitory activity
